Test results reported in patent US20260216190A1, “TREATMENT OF HEMATOLOGICAL MALIGNANCIES WITH INHIBITORS OF MENIN” (Kura Oncology, Inc., priority 2018, published 2026).

Target: T1, menin-MLL interaction (Homo sapiens, UniProt O00255)
T1 sequence (O00255 1-610): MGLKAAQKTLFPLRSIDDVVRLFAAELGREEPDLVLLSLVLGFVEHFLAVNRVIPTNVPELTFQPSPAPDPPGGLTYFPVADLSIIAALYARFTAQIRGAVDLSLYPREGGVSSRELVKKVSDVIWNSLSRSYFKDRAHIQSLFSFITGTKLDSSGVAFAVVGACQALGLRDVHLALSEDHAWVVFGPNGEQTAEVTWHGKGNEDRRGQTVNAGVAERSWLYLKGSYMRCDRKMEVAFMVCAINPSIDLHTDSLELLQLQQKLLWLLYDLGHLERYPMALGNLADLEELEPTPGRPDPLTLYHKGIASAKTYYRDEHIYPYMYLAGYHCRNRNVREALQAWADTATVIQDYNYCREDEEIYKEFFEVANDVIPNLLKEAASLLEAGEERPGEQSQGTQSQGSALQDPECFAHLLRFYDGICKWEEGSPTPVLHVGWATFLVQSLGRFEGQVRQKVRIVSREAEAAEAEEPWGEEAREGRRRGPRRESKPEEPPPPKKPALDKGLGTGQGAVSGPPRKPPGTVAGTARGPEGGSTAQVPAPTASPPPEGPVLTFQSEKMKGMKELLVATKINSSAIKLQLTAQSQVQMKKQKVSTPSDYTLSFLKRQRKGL
Test: Fluorescence polarization (FP) competition assay
Type: binding
Conditions: read-out: Menin MLL 4-43 IC50

Row | IC50 | SMILES
1 | < 50 nM | Cc1c(CN2CCC(Nc3ncnc4sc(CC(F)(F)F)cc34)CC2)ccc2c1cc(C#N)n2CC(C1CC1)N1CCN(S(C)(=O)=O)CC1 (centres unmarked) [Compound I-23]
2 | 50 to 250 nM | COCCNS(=O)(=O)N1CCN([C@@H](C)Cn2c(C#N)cc3c(C)c(CN4CCC(Nc5ncnc6sc(CC(F)(F)F)cc56)CC4)ccc32)CC1 [Compound I-142]
